Source: ChEMBL document CHEMBL4052712, “Design and optimization of highly-selective, broad spectrum fungal CYP51 inhibitors” (Bioorg Med Chem Lett, 2017)

Columns and labels:
[1] = target: T1, Lanosterol 14-alpha demethylase (Trichophyton rubrum (strain ATCC MYA-4607 / CBS 118892) (Athlete'sfoot fungus)) (UniProt F2SHH3); assay: Inhibition of CYP51 in Trichophyton rubrum assessed as inhibition of microbe growth incubated for 48 hrs by CLSI M27-A3 guideline based method
T1 sequence (whole entry): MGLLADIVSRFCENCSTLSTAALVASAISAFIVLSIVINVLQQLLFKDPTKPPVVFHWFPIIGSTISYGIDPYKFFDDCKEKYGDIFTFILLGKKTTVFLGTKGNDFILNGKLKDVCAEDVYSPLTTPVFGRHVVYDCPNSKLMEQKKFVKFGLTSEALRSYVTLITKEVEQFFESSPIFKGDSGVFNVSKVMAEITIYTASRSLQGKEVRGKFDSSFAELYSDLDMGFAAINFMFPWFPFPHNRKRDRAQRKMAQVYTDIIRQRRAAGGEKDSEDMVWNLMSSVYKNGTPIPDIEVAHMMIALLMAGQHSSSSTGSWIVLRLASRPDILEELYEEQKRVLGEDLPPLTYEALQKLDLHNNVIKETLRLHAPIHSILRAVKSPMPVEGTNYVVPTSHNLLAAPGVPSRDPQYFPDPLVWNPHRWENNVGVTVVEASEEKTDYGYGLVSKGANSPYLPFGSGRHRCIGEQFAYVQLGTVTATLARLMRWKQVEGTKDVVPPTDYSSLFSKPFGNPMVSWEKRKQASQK

[2] = target: Lanosterol 14-alpha demethylase (Candida albicans (strain SC5314 / ATCC MYA-2876) (Yeast), UniProt P10613); assay: Inhibition of CYP51 in Candida albicans assessed as inhibition of microbe growth incubated for 48 hrs by CLSI M27-A3 guideline based method
Sequence of Lanosterol 14-alpha demethylase (P10613 whole entry): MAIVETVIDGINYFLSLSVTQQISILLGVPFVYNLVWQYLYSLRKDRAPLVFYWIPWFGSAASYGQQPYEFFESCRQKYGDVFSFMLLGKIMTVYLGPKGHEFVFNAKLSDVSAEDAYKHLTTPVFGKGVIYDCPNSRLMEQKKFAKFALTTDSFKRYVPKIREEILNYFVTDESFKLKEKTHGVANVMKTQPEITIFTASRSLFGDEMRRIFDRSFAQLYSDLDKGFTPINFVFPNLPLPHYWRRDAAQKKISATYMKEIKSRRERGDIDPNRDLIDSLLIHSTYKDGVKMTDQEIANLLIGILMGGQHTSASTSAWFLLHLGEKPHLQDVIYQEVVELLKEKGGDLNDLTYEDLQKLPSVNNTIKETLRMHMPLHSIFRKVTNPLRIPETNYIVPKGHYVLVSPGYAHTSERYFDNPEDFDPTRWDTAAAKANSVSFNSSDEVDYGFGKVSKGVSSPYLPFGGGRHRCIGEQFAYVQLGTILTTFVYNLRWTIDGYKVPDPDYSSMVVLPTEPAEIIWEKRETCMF

[3] = target: T2, Lanosterol 14-alpha demethylase (Aspergillus) (UniProt B8NUK6+Q9P8R0+G4WW85); assay: Inhibition of CYP51 in Aspergillus fumigatus assessed as inhibition of microbe growth incubated for 48 to 168 hrs by CLSI M27-A3 guideline based method
[4] = target: Lanosterol 14-alpha demethylase (Candida glabrata (strain ATCC 2001 / BCRC 20586 / JCM 3761 / NBRC 0622 /NRRL Y-65 / CBS 138) (Yeast) (Nakaseomyces glabratus)) (UniProt P50859); assay: Inhibition of CYP51 in Candida glabrata assessed as inhibition of microbe growth incubated for 48 hrs by CLSI M27-A3 guideline based method
Sequence of Lanosterol 14-alpha demethylase (Candida glabrata (strain ATCC 2001 / BCRC 20586 / JCM 3761 / NBRC 0622 /NRRL Y-65 / CBS 138) (Yeast) (Nakaseomyces glabratus)) (P50859 whole entry): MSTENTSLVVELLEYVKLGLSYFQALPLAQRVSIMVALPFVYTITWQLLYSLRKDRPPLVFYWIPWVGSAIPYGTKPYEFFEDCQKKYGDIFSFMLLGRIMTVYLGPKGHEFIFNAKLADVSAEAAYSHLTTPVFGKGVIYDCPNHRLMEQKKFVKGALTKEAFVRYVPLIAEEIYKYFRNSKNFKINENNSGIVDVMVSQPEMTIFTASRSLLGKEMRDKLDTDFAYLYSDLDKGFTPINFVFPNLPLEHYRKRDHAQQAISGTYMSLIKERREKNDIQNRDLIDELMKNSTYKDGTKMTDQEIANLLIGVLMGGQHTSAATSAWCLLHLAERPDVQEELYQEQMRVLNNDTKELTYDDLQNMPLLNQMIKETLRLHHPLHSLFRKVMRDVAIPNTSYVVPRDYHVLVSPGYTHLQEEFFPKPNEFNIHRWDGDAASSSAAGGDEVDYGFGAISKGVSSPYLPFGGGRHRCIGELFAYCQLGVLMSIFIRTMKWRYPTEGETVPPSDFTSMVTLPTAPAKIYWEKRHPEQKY

Cryptococcus neoformans = assay: Inhibition of CYP51 in Cryptococcus neoformans assessed as inhibition of microbe growth incubated for 48 hrs by CLSI M27-A3 guideline based method
[5] = target: T2, Lanosterol 14-alpha demethylase (Aspergillus); assay: Inhibition of CYP51 in Aspergillus flavus assessed as inhibition of microbe growth incubated for 48 to 168 hrs by CLSI M27-A3 guideline based method
[6] = target: T3, Cytochrome P450 11B1, mitochondrial (Homo sapiens, UniProt P15538); assay: Inhibition of CYP11B1 in human hepatocyte microsomes using deoxycortisol substrate by HPLC/MS/MS method; format: ADME
T3 sequence (P15538 whole entry): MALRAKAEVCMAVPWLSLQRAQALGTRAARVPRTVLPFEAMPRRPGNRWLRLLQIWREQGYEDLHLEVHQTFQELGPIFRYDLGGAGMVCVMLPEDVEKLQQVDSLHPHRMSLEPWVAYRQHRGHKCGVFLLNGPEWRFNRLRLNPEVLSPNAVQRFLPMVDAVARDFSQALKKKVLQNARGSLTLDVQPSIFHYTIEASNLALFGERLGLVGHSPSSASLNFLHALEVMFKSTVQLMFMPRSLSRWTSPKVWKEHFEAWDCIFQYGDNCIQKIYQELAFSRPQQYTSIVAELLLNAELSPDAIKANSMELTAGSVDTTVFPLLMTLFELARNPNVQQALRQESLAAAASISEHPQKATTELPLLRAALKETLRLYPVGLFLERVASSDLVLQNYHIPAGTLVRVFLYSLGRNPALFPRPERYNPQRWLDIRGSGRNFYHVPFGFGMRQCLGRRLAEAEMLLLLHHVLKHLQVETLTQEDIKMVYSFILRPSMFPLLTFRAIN

[7] = target: T4, Cytochrome P450 11B2, mitochondrial (Homo sapiens, UniProt P19099); assay: Inhibition of CYP11B2 in human hepatocyte microsomes using deoxycorticosteroid substrate by HPLC/MS/MS method; format: ADME
T4 sequence (P19099 whole entry): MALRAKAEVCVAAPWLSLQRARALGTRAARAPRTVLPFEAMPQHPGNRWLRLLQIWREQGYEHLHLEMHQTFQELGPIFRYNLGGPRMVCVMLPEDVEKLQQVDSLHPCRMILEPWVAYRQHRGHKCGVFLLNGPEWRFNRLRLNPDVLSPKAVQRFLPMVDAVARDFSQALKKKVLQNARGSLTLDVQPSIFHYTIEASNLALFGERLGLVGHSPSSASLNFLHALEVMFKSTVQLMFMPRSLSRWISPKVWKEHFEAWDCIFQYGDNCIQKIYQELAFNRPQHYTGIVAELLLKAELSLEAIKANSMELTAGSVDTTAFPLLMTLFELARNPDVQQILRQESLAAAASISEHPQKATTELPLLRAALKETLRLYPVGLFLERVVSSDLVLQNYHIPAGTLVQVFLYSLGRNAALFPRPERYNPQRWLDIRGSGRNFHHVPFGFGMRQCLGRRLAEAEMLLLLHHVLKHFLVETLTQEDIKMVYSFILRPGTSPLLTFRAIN

[8] = target: T5, Steroid 17-alpha-hydroxylase/17,20 lyase (Homo sapiens, UniProt P05093); assay: Inhibition of CYP17 lyase in human hepatocyte microsomes using 17a-hydroxypregnenolone substrate by HPLC/MS/MS method; format: ADME
T5 sequence (P05093 whole entry): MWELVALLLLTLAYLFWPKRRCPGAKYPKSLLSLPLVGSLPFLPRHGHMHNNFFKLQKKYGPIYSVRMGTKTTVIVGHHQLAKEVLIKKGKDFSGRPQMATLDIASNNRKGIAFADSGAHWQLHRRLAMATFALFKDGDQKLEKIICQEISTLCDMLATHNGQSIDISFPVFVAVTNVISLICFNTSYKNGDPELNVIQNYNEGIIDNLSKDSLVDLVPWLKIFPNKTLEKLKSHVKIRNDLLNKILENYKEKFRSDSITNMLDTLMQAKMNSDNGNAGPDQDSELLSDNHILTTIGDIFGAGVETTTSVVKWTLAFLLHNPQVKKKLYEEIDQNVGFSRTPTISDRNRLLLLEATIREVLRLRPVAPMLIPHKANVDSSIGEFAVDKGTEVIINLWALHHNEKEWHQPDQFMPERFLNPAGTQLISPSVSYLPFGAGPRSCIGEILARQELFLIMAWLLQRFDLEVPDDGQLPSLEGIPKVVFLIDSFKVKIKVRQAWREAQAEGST

[9] = target: T5, Steroid 17-alpha-hydroxylase/17,20 lyase; assay: Inhibition of CYP17 hydroxylase in human hepatocyte microsomes using pregnenolone substrate by HPLC/MS/MS method; format: ADME
Aromatase = target: T6, Aromatase (Homo sapiens, UniProt P11511); assay: Inhibition of CYP19 in human hepatocyte microsomes using testosterone substrate by HPLC/MS/MS method; format: ADME
T6 sequence (P11511 whole entry): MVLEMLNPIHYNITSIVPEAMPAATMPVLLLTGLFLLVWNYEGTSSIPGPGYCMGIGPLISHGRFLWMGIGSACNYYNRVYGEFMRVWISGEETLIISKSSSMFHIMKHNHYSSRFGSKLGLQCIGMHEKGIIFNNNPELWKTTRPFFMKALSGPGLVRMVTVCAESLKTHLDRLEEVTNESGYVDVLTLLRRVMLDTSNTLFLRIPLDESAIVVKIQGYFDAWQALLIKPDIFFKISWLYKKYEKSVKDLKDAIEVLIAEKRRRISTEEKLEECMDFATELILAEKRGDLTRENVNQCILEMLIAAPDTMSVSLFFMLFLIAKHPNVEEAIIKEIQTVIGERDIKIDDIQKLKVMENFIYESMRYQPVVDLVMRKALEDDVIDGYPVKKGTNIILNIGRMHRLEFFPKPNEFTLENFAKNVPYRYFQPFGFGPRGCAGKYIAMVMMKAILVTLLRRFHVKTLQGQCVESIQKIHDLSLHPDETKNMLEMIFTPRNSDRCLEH

| Compound | MIC50 [1] | MIC50 [2] | MIC100 [3] | MIC50 [4] | MIC50 (Cryptococcus neoformans) | MIC100 [5] | IC50 [6] | IC50 [7] | IC50 [8] | IC50 [9] | IC50 (Aromatase) |
| --- | --- | --- | --- | --- | --- | --- | --- | --- | --- | --- | --- |
| OC(Cn1cncn1)(Cn1cncn1)c1ccc(F)cc1F [FLUCONAZOLE] | 16 µg/mL | 0.5 µg/mL | > 64 µg/mL | 8 µg/mL | 0.25 µg/mL | > 64 µg/mL | 30 µM | 13 µM | > 200 µM | > 200 µM | 22 µM |
| CC[C@@H]([C@H](C)O)n1ncn(-c2ccc(N3CCN(c4ccc(OC[C@@H]5CO[C@@](Cn6cncn6)(c6ccc(F)cc6F)C5)cc4)CC3)cc2)c1=O [POSACONAZOLE] | 0.25 µg/mL | 0.015 µg/mL | 0.062 µg/mL | 0.12 µg/mL | 0.0078 µg/mL | 0.25 µg/mL | 0.31 µM | 0.021 µM | 0.042 µM | 1.8 µM | 8.4 µM |
